Test results published in patent US9839642B2, “Beta-tetrazolyl-propionic acids as metallo-beta-lactamase inhibitors” (priority 2014, dated 2017).
Where two headings read alike, the source gives them in different places.

Key:
[1] = test system: Serratia marcescens expressing IMP-1 (CL5741); experiment: Antibiotic potentiation activity: synergistic concentration (MITC95) with imipenem, growth by OD600; format: cell-based
How it was run: (§1)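 Strains grown overnight at 35° C, resuspended in saline, diluted 1:100 into 1.1×CAMHB; imipenem at 1 μg/ml or 4 μg/ml with test compound 200 μM to 0.195 μM. Incubated 22 hours to 24 hours at 35° C, OD600 read; MITC95 is lowest compound concentration inhibiting 95% of growth.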

[2] = test system: Escherichia coli expressing NDM-1 (CLB30016); experiment: as above; format: cell-based
How it was run: as §1

[3] = test system: Klebsiella pneumoniae expressing VIM-1 (IHMA599644); experiment: as above; format: cell-based
How it was run: as §1

[4] = molecular target: NDM-1 (Klebsiella pneumoniae, UniProt C7C422); experiment: Enzyme activity: determination of IC50, fluorescence assay with CCF2-FA substrate; format: biochemical; conditions: CCF2-FA 1.25 μM, 2 hours at 25° C., read-out: NDM1 IC50
How it was run: (§2)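 Read-out: fluorescence, ex 405 nm / em 460 nm, after 2 h at 25° C with 1.25 μM CCF2-FA. Buffer 100 mM KH2PO4 pH 7, 0.005% Tween-20, 10 μM ZnSO4; enzyme 1 pM NDM-1, 2 pM IMP-1, 30 pM VIM-1. IC50 by 4-parameter fit.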

[5] = molecular target: IMP-1 (Serratia marcescens, UniProt P52699); experiment: as above; format: biochemical; conditions: CCF2-FA 1.25 μM, 2 hours at 25° C., read-out: IMP1 IC50
How it was run: as §2

[6] = molecular target: VIM-1 (Pseudomonas aeruginosa, UniProt A0A0F7KYQ8); experiment: as above; format: biochemical; conditions: CCF2-FA 1.25 μM, 2 hours at 25° C., read-out: VIM1 IC50
How it was run: as §2

[7] = S. marcescens CL5741 (IMP-1), 95% inhibition of growth
[8] = E. coli CLB30016 (NDM-1), 95% inhibition of growth
[9] = K. pneumoniae IHMA599644 (VIM-1), 95% inhibition of growth
[10] = 95% inhibition of bacterial growth, strain CL5741
[11] = 95% inhibition of bacterial growth, strain CLB30016
[12] = 95% inhibition of bacterial growth, strain IHMA599644

Sequence of IMP-1 (P52699 19-246, looked up, species assumed): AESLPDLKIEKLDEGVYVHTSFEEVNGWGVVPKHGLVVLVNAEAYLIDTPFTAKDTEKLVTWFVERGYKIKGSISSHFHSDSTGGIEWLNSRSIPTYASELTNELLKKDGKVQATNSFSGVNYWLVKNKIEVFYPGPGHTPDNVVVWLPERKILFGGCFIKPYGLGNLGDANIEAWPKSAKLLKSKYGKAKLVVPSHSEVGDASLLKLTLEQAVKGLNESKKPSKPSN
Sequence of NDM-1 (C7C422 29-270, looked up, species assumed): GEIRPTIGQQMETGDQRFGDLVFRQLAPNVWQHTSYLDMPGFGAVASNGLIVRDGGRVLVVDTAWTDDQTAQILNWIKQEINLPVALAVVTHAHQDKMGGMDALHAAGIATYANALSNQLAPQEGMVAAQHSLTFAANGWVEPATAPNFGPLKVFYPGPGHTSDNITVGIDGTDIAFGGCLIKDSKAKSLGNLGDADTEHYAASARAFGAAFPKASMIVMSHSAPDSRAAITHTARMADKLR

SMILES	IMP1 SM5741 MITC95 [1, 7] [µM]	NDM1 EC30016 MITC95 [2, 8] [µM]	VIM1 KP599644 MITC95 [3, 9] [µM]	IC50 ([4]; NDM-1 enzyme 1 pM) [nM]	IC50 ([5]; IMP-1 enzyme 2 pM) [nM]	IC50 ([6]; VIM-1 enzyme 30 pM) [nM]	IMP1 SM5741 MITC95 [1, 10] [µM]	NDM1 EC30016 MITC95 [2, 11] [µM]	VIM1 KP599644 MITC95 [3, 12] [µM]	IC50 ([4]; enzyme 1 pM) [nM]	IC50 ([5]; enzyme 2 pM) [nM]	IC50 ([6]; enzyme 30 pM) [nM]
CCC[C@H](C(=O)O)[C@H](Cc1ccccc1C1=CCC(NC)CC1)c1nn[nH]n1 (stereo partly drawn) [Example 448, 2′-((2S,3S)-3-carboxy-2-(2H-tetrazol-5-yl)hexyl)-N-methyl-2,3,4,5-tetrahydro-[1,1′-biphenyl]-4-aminium 2,2,2-trifluoroacetate]	200	12.5	37.5	92.5	7790	48.6	–	–	–	–	–	–
CCC[C@H](C(=O)O)[C@H](Cc1ccc(C2CCN(C(=N)N)C2)cc1)c1nnn[nH]1 (stereo partly drawn) [Example 414, (2S)-2-((1S)-2-(4-(1-carbamimidoylpyrrolidin-3-yl)phenyl)-1-(1H-tetrazol-5-yl)ethyl)pentanoic acid]	9.375	4.688	12.5	69	214	1.52	–	–	–	–	–	–
CCC[C@H](C(=O)O)[C@H](Cc1ccc(S(=O)(=O)C2CC2)nc1)c1nnn[nH]1 [Example 86, (2S)-2-[(1S)-2-[6-(cyclopropylsulfonyl)pyridin-3-yl]-1-(1H-tetrazol-5-yl)ethyl]pentanoic acid]	–	–	–	–	–	–	125	50	100	130	3300	11
CC(C)C[C@H](C(=O)O)[C@H](Cc1ccc(CN(C)C)c(F)c1)c1nn[nH]n1.O=C(O)C(F)(F)F [Example 443, 1-(4-((2S,3S)-3-carboxy-5-methyl-2-(2H-tetrazol-5-yl)hexyl)-2-fluorophenyl)-N,N-dimethylmethanaminium 2,2,2-trifluoroacetate]	37.5	12.5	25	298	1060	4.29	–	–	–	–	–	–
CC(C)C[C@H](C(=O)O)[C@H](Cc1ccc(COCCN2CCNCC2)c(F)c1)c1nn[nH]n1.O=C(O)C(F)(F)F [Example 441, 5-((2S,3S)-3-carboxy-1-(3-fluoro-4-((2-(piperazin-1-yl)ethoxy)methyl)phenyl)-5-methylhexan-2-yl)-4422H-tetrazol-3-ium 2,2,2-trifluoroacetate]	18.75	25	50	113	214	19.7	–	–	–	–	–	–
CCC[C@H](C(=O)O)[C@H](Cc1ccc(NC2CCCN(CCC)C2)cc1)c1nn[nH]n1 (stereo partly drawn) [Example 223, (2S)-2-[(1S)-2-{4-[(1-propylpiperidin-3-yl)amino]phenyl}-1-(2H-tetrazol-5-yl)ethyl]pentanoic acid]	–	–	–	–	–	–	25	38	75	500	1300	71
CCC[C@H](C(=O)O)[C@H](Cc1ccccc1-c1ccc(C2CCNCC2)cc1)c1nn[nH]n1 [Example 395, (2S)-2-[(1S)-2-(4′-piperidin-4-ylbiphenyl-2-yl)-1-(2H-tetrazol-5-yl)ethyl]pentanoic acid]	6.25	6.2	16	0.1	120	0.48	–	–	–	–	–	–
CCC[C@H](C(=O)O)[C@H](Cc1ccc(C2CCN(C=N)CC2)nc1)c1nnn[nH]1 [Example 299, (S)-2-((S)-2-(6-(1-(iminomethyl)piperidin-4-yl)pyridin-3-yl)-1-(1H-tetrazol-5-yl)ethyl)pentanoic acid]	50	1.6	25	220	4400	22	–	–	–	–	–	–
CCC[C@H](C(=O)[O-])[C@H](Cc1ccc(C[N+](C)(C)C)cc1)c1nnn[nH]1 [Example 419, (S)-2-((S)-1-(1H-tetrazol-5-yl)-2-(4-((trimethylammonio)methyl)phenyl)ethyl)pentanoate]	50	6.25	12.5	869	5920	5.51	–	–	–	–	–	–
CC(C)C[C@H](C(=O)O)[C@H](Cc1ccc(N[C@@H]2CC[C@H](N)C2)nc1)c1nnn[nH]1 [Example 316, (2S)-2-[(1S)-2-(6-{[(1R,3S)-3-aminocyclopentyl]amino}pyridin-3-yl)-1-(1H-tetrazol-5-yl)ethyl]-4-methylpentanoic acid]	12.5	1.6	12.5	450	1200	22	–	–	–	–	–	–
CC(C)C[C@H](C(=O)O)[C@H](Cc1ccc(Oc2cccc3c2CCNC3)nc1)c1nn[nH]n1 [Example 388, (2S)-4-methyl-2-[(1S)-2-[6-(1,2,3,4-tetrahydroisoquinolin-5-yloxy)pyridin-3-yl]-1-(2H-tetrazol-5-yl)ethyl]pentanoic acid]	18.8	25	38	130	340	18	–	–	–	–	–	–
CC(C)[C@H](C(=O)O)[C@H](Cc1ccc(C2=CCNC2)cc1)c1nnn[nH]1 [Example 60, (2S,3S)-4-(4-(2,5-dihydro-1H-pyrrol-3-yl)phenyl)-2-isopropyl-3-(1H-tetrazol-5-yl)butanoic acid]	–	–	–	–	–	–	9.4	3.1	4.7	56	760	1.9
CC(C)C[C@H](C(=O)O)[C@H](Cc1ccc(Oc2ccc(CC(C)(C)N)cc2)nc1)c1nn[nH]n1 [Example 386, (2S)-2-[(1S)-2-{6-[4-(2-amino-2-methylpropyl)phenoxy]pyridin-3-yl}-1-(2H-tetrazol-5-yl)ethyl]-4-methylpentanoic acid]	12.5	25	>200	120	180	100	–	–	–	–	–	–
CC(C)[C@H](C(=O)O)[C@H](Cc1ccc(NCCN)nc1)c1nnn[nH]1 [Example 140, (2S,3S)-4-(6-((2-aminoethyl)amino)pyridin-3-yl)-2-isopropyl-3-(1H-tetrazol-5-yl)butanoic acid]	–	–	–	–	–	–	75	1.6	12.5	320	> 20000	8.7
CCC[C@H](C(=O)O)[C@H](Cc1cccc(C(=O)O)n1)c1nnn[nH]1 [Example 94, 6-((2S,3)-3-carboxy-2-(1H-tetrazol-5-yl)hexyl)picolinic acid]	–	–	–	–	–	–	>200	50	200	4500	> 20000	2900
CC(C)[C@H](C(=O)O)[C@H](Cc1ccc(C2=CCNC2)nc1)c1nnn[nH]1 [Example 64, (2S,3S)-4-(6-(2,5-dihydro-1H-pyrrol-3-yl)pyridin-3-yl)-2-isopropyl-3-(1H-tetrazol-5-yl)butanoic acid]	–	–	–	–	–	–	50	6.2	12.5	300	12000	8.4
CCC[C@H](C(=O)O)[C@H](Cc1ccccc1-c1ccc(N)nc1)c1nn[nH]n1 [Example 398, (2S)-2-[(1S)-2-[2-(6-aminopyridin-3-yl)phenyl]-1-(2H-tetrazol-5-yl)ethyl]pentanoic acid]	75	3.1	25	1.6	1100	10	–	–	–	–	–	–
CCC[C@H](C(=O)O)[C@H](Cc1cccc(N)n1)c1nnn[nH]1 [Example 117, (2S)-2-[(1S)-2-(6-aminopyridin-2-yl)-1-(1H-tetrazol-5-yl)ethyl]pentanoic acid]	–	–	–	–	–	–	>200	1.6	18.8	1300	> 20000	370
CCC[C@H](C(=O)O)[C@H](Cc1ccc(-c2cnc(N)nc2)nc1)c1nnn[nH]1 [Example 161, (2S)-2-[(1S)-2-[6-(2-aminopyrimidin-5-yl)pyridin-3-yl]-1-(1H-tetrazol-5-yl)ethyl]pentanoic acid]	–	–	–	–	–	–	18.8	18.8	50	30	1100	3.3
